# According to patent publication US8697356B2, “Single-molecule-format probe and utilization thereof” (National Institute of Advanced Industrial Science and …, priority 2008, dated 2014):
# Experiments:
# Type in all cases: cell-based, African green monkey
# [1] = system: cytosolic Ca^2+; assay: Retention of Ca^2+ levels after wash-out, COS-7 cells carrying pCPG (Example 9); conditions: CPG; 20 minutes stimulation; thapsigargin or cyproheptadine added to 0.5 mM histamine or ATP; 2 μM ionomycin
# Experimental: Retention of cytosolic calcium Ca^2+ levels in response to an external stimulus were monitored on the basis of the luminescence intensities from COS-7 cells carrying pCPG.
# The cells were washed twice with PBS after ligand stimulation, and harvested by trypsinization and centrifugation. This wash-out terminates the external stimulation of ligands for elevating cytosolic Ca^2+ levels. The cells were resuspended with a 40 mL substrate buffer carrying coelenterazine, and then transferred to a test tube to determine the luminescence with a luminometer (Minilumat LB9506).
# [2] = system: cytoplasm Ca^2+; assay: Ligand affinity of CPG and CPG-ctrl, histamine-triggered Ca^2+ (Example 12)
# Excerpt: First, GLuc was dissected at Q105, and the original N- and C-terminals of the fragments were circularly permutated with a 10 GS linker. The outer terminals were respectively fused with M13 and CaM to form CPG. CPG-ctrl which is different from CPG only in that GLuc was not circularly permutated was parallelly formed as a control probe of CPG by the use of the same components as CPG (FIG. 20).
# As in Example 2, COS-7 cells cultured in a black, glass-bottom plate (24-well) were transiently transfected with pCPG or pCPG-ctrl, and stocked in a cell incubator for 16 hours. The cells were saturated with a 300 μL HBSS buffer containing coelenterazine.
# [3] = system: cytosolic Ca^2+; assay: Ca^2+ dynamics in COS-7 cells transfected with pCPG or pSMG (Example 8); conditions: 1 mM histamine, CPG
# Excerpt: The dynamics of cytosolic Ca^2+ in COS-7 cells were monitored in the cells transfected with pCPG and in the cells transfected with SMG shown in FIG. 14 as a control. The free Ca^2+ was a representative second messenger in living mammalian cells. […] The outer terminals were respectively fused with M13 peptide and calmodulin. SMG is different from CPG in that calmodulin and M13 peptide are linked between N- and C-terminal fragments. That is, the luciferases are not circularly permutated in SMG.
# As in Example 2, COS-7 cells cultured in a black, glass-bottom plate (24-well) were transfected with pCPG or pSMG, and stocked in a cell incubator for 16 hours. The cells were saturated with a 300 μL Hank's balanced salt solution (HBSS) buffer containing coelenterazine.
# [4] = system: COS-7 cells; assay: Saturation rate of substrate in COS-7 cells carrying pCPG-ctrl (Example 13); conditions: HBSS buffer
# Experimental: A reaction rate of coelenterazine saturation in COS-7 cells was monitored. […] The cells on the plate were washed once with HBSS buffer and were saturated with 500 μL HBSS buffer. The luminescence variances after coelenterazine addition were monitored with a bioluminescence plate reader (Mithras LB 940; Berthold).
smiles,measurement,setting,value
"C[C@H](CCC(=O)O)C[C@H](C)C[C@H](C)C(=O)/C=C(\O)[C@H](C)C[C@H](C)C/C=C/[C@@H](C)[C@@H](O)[C@@H](C)[C@@H](O)C[C@@H]1CC[C@@](C)([C@H]2CC[C@@](C)([C@@H](C)O)O2)O1 [Ionomycin, ionomycin]",cytosolic Ca^2+ levels (luminescence) after wash-out,[1],retaining certain levels
C/C=C(/C)C(=O)O[C@H]1C(C)=C2[C@H]([C@@H]1OC(=O)CCCCCCC)[C@@](C)(OC(C)=O)C[C@H](OC(=O)CCC)[C@@]1(O)[C@H]2OC(=O)[C@@]1(C)O [thapsigargin],cytosolic Ca^2+ levels (luminescence) after wash-out,[1],retained
NCCc1c[nH]cn1 [histamine],concentration from which CPG started sensing,[2],0.25 mM
same,time to reach plateau of luminescence,"[2]; 1 mM histamine, CPG",~10 min
same,time to reach plateau of luminescence,[3],~10 min
Oc1ccc(Cc2nc3c(Cc4ccccc4)nc(-c4ccc(O)cc4)cn3c2O)cc1 [coelenterazine],time in which the COS-7 cells were saturated,[4],8.5 min
Nc1ncnc2c1ncn2[C@@H]1O[C@H](COP(=O)(O)OP(=O)(O)OP(=O)(O)O)[C@@H](O)[C@H]1O [ATP],cytosolic Ca^2+ levels (luminescence) after wash-out,[1],quickly decreased
